In patent US10702568B2, “Compositions containing silymarin and sulfoalkyl ether cyclodextrin and methods of using the same” (UNIVERSITY OF KANSAS, priority 2015, dated 2020):
Values after ≈ are worked out from the molar mass of the structure shown.

Assays:
[1] = Silymarin solubility in water, CAPTISOL® solution and γ-cyclodextrin solution (Example 2, HPLC); assay type: physicochemical; details: for solubility: water, thermodynamic from solid, Solubility (mg/ml) of components of silymarin
Procedure: The solutions were centrifuged for 10 min at 13K rpm. An aliquot of the supernatant was diluted 1:5 for Water, 1:25 for γ-Cyclodextrin and 1:100 for both 0.20 M CAPTISOL® and 0.20M HP-B-Cyclodextrin using MeOH as the diluent. The standard reference was prepared by dissolving silymarin in 10 mg/mL of DMSO and then diluted to 0.50 mg/mL using MeOH.
The change of the saturated solubility of the various components of silymarin in each of the four types of samples can be seen in FIG. 4.
The data shown in Table 6 is plotted in FIGS. 5 and 6. The change of the solubility of the various components of silymarin in each of the three samples can be seen in FIG. 5. The total mutual saturated solubility of all flavonolignan components can be seen in FIG. 6. […] The various components of silymarin also have increased solubility in the CAPTISOL® (0.2M) sample.

[2] = Log D of silymarin components (octanol/buffer, HPLC); assay type: physicochemical; details: pH 7.4
Procedure: (§1) Silymarin components including taxifolin, silydianin, silychristin, silybin A, silybin B, isosilybin A, and isosilybin B were tested for their solubility in water and also for their Log D value. The silymarin extract was obtained from Indena® (Indena Code: 9065110). The HPLC system consisted of Waters system equipped with performance PLUS inline degasser along dual λ absorbance detector set at 288 nm. The chromatographic separation of silymarin constituents was achieved on a Symmetry Shield RP18 column (150×4.6 mm, 5 μm); which was maintained at ambient room temperature conditions. The binary mobile phase system consisted of reservoir A (methanol: 10 mM ammonium acetate pH 5 [65:35 v/v]) and reservoir B (10 mM ammonium acetate, pH 5) were run as per gradient program (0-1.9 min: 25% A and 75% B; 2.0-14.9 min: 80% A and 20% B and 15-37.9 min: 80% A and 20% B and 38-40 min: 25% A and 75% B). The flow rate was 1 mL/min throughout the analytical run.
To determine the Log D of silymarin components, the silymarin extract (2 mg) was dissolved in 100% DMSO and then used for the experiment. Different buffers between pH ranges of 1.0 to 12 were prepared by using universal buffer stock containing 25 mM hydrochloric acid, 25 mM citric acid, 25 mM phosphoric acid, 30 mM boric acid and 20 mM sodium chloride. About 45 mL of universal buffer was titrated with Sodium hydroxide (5M) to obtain desired pH. A 10 μL of silymarin stock solution was spiked into Eppendorf tube containing 500 μL each of a buffer and presaturated octanol. This mixture was vortexed for 5 minutes and kept for shaking at room temperature. After 16 h, the mixture was centrifuged at 10,000 RPM for 30 minutes. After centrifugation buffer and octanol phases were separated, both phases were diluted with acetonitrile (1:1) and subject to HPLC analysis for quantitation of individual components of silymarin. The Log D values of each compound at a pH was determined by Log D (pH)=Log [Organic (peak area)/Aqueous (peak area)].

[3] = Pharmacokinetic study in rat; assay type: in vivo; details: in vivo; for AUC(0-t): AUC(0-2 h) (ng · h/mL)
Procedure: The Silymarin-CAPTISOL® complex was administered to rat to test its pharmacokinetic properties.
On arrival rats were housed individually in cages at animal care facility in a temperature and humidity controlled room with a 12 h:12 h (light:dark) cycles. The rats were provided with free access to food and water for one week before using for experimental purpose. The 12 rats were equally divided into three groups—Group I: silymarin-CAPTISOL® complex with a CAPTISOL® concentration of 100 mM for oral administration; Group II: silymarin suspension (Control); and Group III: silymarin complex with a CAPTISOL® concentration of 100 mM for intravenous administration. The animals were fasted overnight with free access to water. On the day of experiment, the rat was removed from animal care facility and brought to the procedure lab. The animal was weighed and appropriate dosing volume was determined. For oral administration, rat's head was held in place by gently extending the head back and supporting the lower body. The gavage tube was placed in the mouth and advanced along the lower palate till the esophagus, and the silymarin was administered through the tube. For intravenous administration, the silymarin-CAPTISOL® complex was administered by slow bolus intravenous injection into the tail vein. Approximately 200 μL blood was drawn into heparin coated tubes at pre dose, 0.15, 0.5, 1, 2, 4, 8, 10 and 24 h for oral group II and for intravenous group III. The sampling time points were predose, 0.12, 0.25, 0.5, 1, 2, 4, 8 and 24 h through the jugular vein catheter. Plasma was harvested by centrifuging the blood at 4000 RPM for 5 min and stored frozen at −80±10° C. until analysis.
Stored plasma was thawed just before performing the silymarin components analysis. 200 μL of acetonitrile containing 0.1% of ammonia was added to 50 μL of plasma, and this mixture was vortexed for 5 min and centrifuged at 4° C. for 5 min at 10,000 RPM. After centrifugation, the supernatant was separated and injected into HPLC for analysis of silymarin constituents taxifolin, silydianin, silychristin, silybin A, silybin B, isosilybin A and isosilybin B.
The plasma concentration-time curves of silybin A, silybin B, isosilybin A, and isosilybin B in the Silymarin-CAPTISOL® sample of Group I and the control sample (silymarin suspension) are respectively shown in FIGS. 20A to 20D.

[4] = Solubility of silymarin components in water (Example 10, HPLC); assay type: physicochemical; details: for solubility: water
Procedure: as §1

[5] = Silymarin saturated solubility with CAPTISOL® (Example 1, HPLC); details: for solubility: 25 °C, thermodynamic from solid, Solubility (mg/ml) of flavonolignan components of silymarin, saturated with excess silymarin
Procedure: CAPTISOL® was dissolved in water to form four solutions with a CAPTISOL® concentration of 0.05 mol/L, 0.1 mol/L, 0.2 mol/L, and 0.3 mol/L respectively. 12 mg of silymarin powder (Sigma Aldrich) was added to 1 mL of each of the four CAPTISOL® solutions on Day 1, another 12 mg Silymarin powder was added on Day 3, and 19-22 mg Silymarin powder was added on Day 7 to ensure that silymarin reached its maximum solubility in each solution. The solutions were stirred in a water bath at 25° C. The solutions were then centrifuged prior to sampling. The supernatant was diluted in MeOH in preparation for HPLC assay.
A reference standard was prepared by mixing silymarin with methanol to provide a methanol solution with a silymarin concentration of 0.1 mg/ml.
HPLC was used to measure the relative concentrations of the different components of silymarin in each sample solution following the method described in Kuki et al., (2012) Chromatogram 75:175-180. The relative concentration of each component of silymarin was measured by comparing the normalized peak area units with that of the standard reference measured by the UV data at 288 nm and assuming equivalent extinction coefficients for all components.
The relative molar amounts of the ten flavonolignan components of silymarin were calculated by dividing the normalized peak area of each component in a sample by the total normalized peak area of the sample.
The concentration of each flavonolignan component of silymarin was calculated from the peak areas in Tables 1a and 1b and the total concentration of silymarin (0.1 mg/ml) in the reference sample, assuming constant extinction coefficients for each component.

[6] = CAPTISOL® (0.2M) in water, saturated
[7] = MeOH standard (0.5 mg/ml), reference
[8] = γ-cyclodextrin (0.15M) (Cavamax) in water, saturated
[9] = γ-cyclodextrin (0.15M), saturated
[10] = 0.05 M CAPTISOL in water, aqueous with cosolvent or surfactant or cyclodextrin, CAPTISOL® (0.05M) in water
[11] = 0.1 M CAPTISOL in water, aqueous with cosolvent or surfactant or cyclodextrin, CAPTISOL® (0.1M) in water
[12] = 0.2 M CAPTISOL in water, aqueous with cosolvent or surfactant or cyclodextrin, CAPTISOL® (0.2M) in water
[13] = 0.3 M CAPTISOL in water, aqueous with cosolvent or surfactant or cyclodextrin, CAPTISOL® (0.3M) in water
[14] = CAPTISOL® (0.05M), saturated solubility
[15] = CAPTISOL® (0.1M), saturated solubility
[16] = CAPTISOL® (0.2M), saturated solubility
[17] = CAPTISOL® (0.3M), saturated solubility
[18] = H2O, saturated solubility, share of total normalized peak area
[19] = MeOH standard (0.1 mg/ml), reference, share of total normalized peak area

| Structure (SMILES) | AUC(0-2 h) ([3]; po) [ng·h/mL] | solubility [1] [µg/mL] | solubility [5, 10] [µg/mL] | solubility [5, 11] [µg/mL] | solubility [5, 12] [µg/mL] | solubility [5, 13] [µg/mL] | Percentages of flavonolignan components of silymarin in the sample [5, 14] [%] | Percentages of flavonolignan components of silymarin in the sample [5, 15] [%] | Percentages of flavonolignan components of silymarin in the sample [5, 16] [%] | Percentages of flavonolignan components of silymarin in the sample [5, 17] [%] | Percentages of flavonolignan components of silymarin in the sample [5, 18] [%] | Percentages of flavonolignan components of silymarin in the sample [5, 19] [%] | solubility ([5]; water, H2O) [µg/mL] | other results |
| --- | --- | --- | --- | --- | --- | --- | --- | --- | --- | --- | --- | --- | --- | --- |
| COc1cc([C@H]2Oc3cc([C@H]4Oc5cc(O)cc(O)c5C(=O)[C@H]4O)ccc3O[C@@H]2CO)ccc1O (relative stereo) [2,3-cis-silybin A] | – | – | – | – | – | – | – | – | – | – | – | – | – | Solubility (mg/ml) of components of silymarin [1, 6]: 2.21 mg/mL; Percentages of components of silymarin flavonolignan in the sample ([1]; CAPTISOL® (0.2M), saturated): 3.47%; Percentages of components of silymarin flavonolignan in the sample ([1]; H2O, saturated): 1.88%; Solubility (mg/ml) of components of silymarin ([1]; H2O, saturated): 0.01 mg/mL; Solubility (mg/ml) of components of silymarin ([1]; MeOH standard (0.5 mg/ml silymarin, dissolved reference, not saturated)): 0.01 mg/mL; Percentages of components of silymarin flavonolignan in the sample [1, 7]: 1.54%; Solubility (mg/ml) of components of silymarin [1, 8]: 0.12 mg/mL; Percentages of components of silymarin flavonolignan in the sample [1, 9]: 1.56% |
| COc1cc([C@@H]2Oc3cc([C@H]4Oc5cc(O)cc(O)c5C(=O)[C@H]4O)ccc3O[C@H]2CO)ccc1O (relative stereo) [2,3-cis-silybin B] | – | – | – | – | – | – | – | – | – | – | – | – | – | Solubility (mg/ml) of components of silymarin [1, 6]: 1.20 mg/mL; Percentages of components of silymarin flavonolignan in the sample ([1]; CAPTISOL® (0.2M), saturated): 1.89%; Percentages of components of silymarin flavonolignan in the sample ([1]; H2O, saturated): 0.75%; Solubility (mg/ml) of components of silymarin ([1]; H2O, saturated): 0.01 mg/mL; Percentages of components of silymarin flavonolignan in the sample [1, 7]: 0.99%; Solubility (mg/ml) of components of silymarin [1, 8]: 0.06 mg/mL; Percentages of components of silymarin flavonolignan in the sample [1, 9]: 0.74% |
| COc1cc([C@@H]2Oc3ccc([C@H]4Oc5cc(O)cc(O)c5C(=O)[C@@H]4O)cc3O[C@H]2CO)ccc1O [Isosilybin B] | 433 | – | – | – | – | – | – | – | – | – | – | – | – | Log D (7.4 pH) [2]: 2.53; AUC(0-2 h) ([3]; iv): 1417 ng·h/mL; Cmax ([3]; iv): 1308 ng/mL; Tmax ([3]; iv): 7.2 min; % Fabs of silymarin-CAPTISOL® complex compared with silymarin alone ([3]; po): higher % Fabs; AUC of Silymarin-CAPTISOL® complex compared with the control sample ([3]; po): higher AUC; Cmax of Silymarin-CAPTISOL® complex compared with the control sample ([3]; po): higher Cmax; Tmax ([3]; po): 30 min; Solubility in water [4]: 6.36 µg/mL (≈ 0.0132 mM) |
| COc1cc([C@H]2Oc3cc([C@H]4Oc5cc(O)cc(O)c5C(=O)[C@@H]4O)ccc3O[C@@H]2CO)ccc1O [Silybin A] | 271 | 30 (≈ 0.0622 mM) | 2230 (≈ 4.62 mM) | 3800 (≈ 7.88 mM) | 6370 (≈ 13.2 mM) | 7330 (≈ 15.2 mM) | 9.55 | 9.86 | 9.64 | 10.22 | 3.15 | 25.35 | 20 (≈ 0.0415 mM) | logD at 16 h [2]: 2.26; AUC(0-t) ([3]; iv): 3440 ng·h/mL; Cmax ([3]; iv, Cmax (ng/mL)): 7910 ng/mL; Tmax ([3]; iv, Tmax (h)): 7.2 min; % Fabs of silymarin-CAPTISOL® complex compared with silymarin alone ([3]; po): higher % Fabs; AUC of Silymarin-CAPTISOL® complex compared with the control sample ([3]; po): higher AUC; Cmax of Silymarin-CAPTISOL® complex compared with the control sample ([3]; po): higher Cmax; Tmax ([3]; po, Tmax (h)): 30 min; Percentages of flavonolignan components of silymarin in the sample ([5]; H2O, saturated solubility, share of total normalized peak area, listed as silybin A): about 3.15%; solubility [4]: 7.71 µg/mL (≈ 0.016 mM) |
| COc1cc([C@@H]2Oc3cc([C@H]4Oc5cc(O)cc(O)c5C(=O)[C@@H]4O)ccc3O[C@H]2CO)ccc1O [Silybin B] | 395 | 30 (≈ 0.0622 mM) | 5590 (≈ 11.6 mM) | 8930 (≈ 18.5 mM) | 13800 (≈ 28.6 mM) | 15800 (≈ 32.6 mM) | 24.01 | 23.18 | 20.90 | 21.96 | 7.72 | 32.00 | 50 (≈ 0.104 mM) | logD at 16 h [2]: 1.99; AUC(0-t) ([3]; iv): 5070 ng·h/mL; Cmax ([3]; iv, Cmax (ng/mL)): 12700 ng/mL; Tmax ([3]; iv, Tmax (h)): 7.2 min; Tmax ([3]; po): 37.8 min; Tmax ([3]; po, Tmax (h)): 30 min; Percentages of flavonolignan components of silymarin in the sample ([5]; H2O, saturated solubility, share of total normalized peak area, listed as silybin B): about 7.72%; solubility [4]: 21.9 µg/mL (≈ 0.0454 mM) |
| COc1cc([C@@H]2Oc3c(O)cc([C@H]4Oc5cc(O)cc(O)c5C(=O)[C@@H]4O)cc3[C@H]2CO)ccc1O [Silychristin A] | – | 440 (≈ 0.912 mM) | 9570 (≈ 19.8 mM) | 15300 (≈ 31.7 mM) | 25500 (≈ 52.8 mM) | 26900 (≈ 55.8 mM) | 41.07 | 39.70 | 38.52 | 37.52 | – | 22.28 | 460 (≈ 0.953 mM) | – |
| COc1cc([C@H]2Oc3c(O)cc([C@H]4Oc5cc(O)cc(O)c5C(=O)[C@@H]4O)cc3[C@@H]2CO)ccc1O [Silychristin B] | – | 60 (≈ 0.124 mM) | 930 (≈ 1.93 mM) | 1150 (≈ 2.38 mM) | 2320 (≈ 4.81 mM) | 2500 (≈ 5.18 mM) | 3.98 | 2.99 | 3.51 | 3.48 | 5.21 | 1.50 | 40 (≈ 0.0829 mM) | – |
| COc1cc([C@@H]2Oc3c(O)cc([C@H]4Oc5cc(O)cc(O)c5C(=O)[C@@H]4O)cc3[C@H]2CO)ccc1O [Silychristin] | – | – | – | – | – | – | – | – | – | – | – | – | – | Log D (7.4 pH) [2]: 0.53; Solubility in water [4]: 170 µg/mL (≈ 0.352 mM) |
